# Measurements reported in US4323517A, “Methoxy and methylsulfinylthiolesters” (Troponwerke GmbH & Co. KG, priority 1977, dated 1982).
# “Also recorded” adds a separate entry of the source. Where two headings read alike, the source gives them in different places.
# Columns and labels:
# [1] = system: paw oedemas, caused by the administration of kaolin; assay: kaolin paw oedema, antiphlogistic action in rats; type: in vivo
# Source text: The anti-inflammatory action was detected in paw oedemas, caused by the administration of kaolin, in rats.
# In addition to the effects described for compound A, it could also be shown that the other derivatives (see Table 2) likewise have a powerful anti-inflammatory action. The minimum doses which still cause a clearly detectable effect on the paw oedema after the administration of kaolin are listed in Table 2.
# Rats, kaolin oedema, intramuscularly, n = 10/dose group
# [2] = stomach ulcer (ulcerogenic action) in rats; settings: rat, in vivo
# formalin oedema = assay: formalin oedema; type: in vivo; settings: im; intramuscularly
# Source text: (§1) Furthermore, A also has an action on other inflammation models. The ED50 values which follow are found (mg/kg; intramuscularly): formalin oedema 5.4, albumin oedema 6.3, yeast oedema 27.4, concanavalin oedema 3.4 and trypsin oedema 2.0.
# albumin oedema = assay: albumin oedema; type: in vivo; settings: im; intramuscularly
# Source text: as §1
# yeast oedema = assay: yeast oedema; type: in vivo; settings: im; intramuscularly
# Source text: as §1
# concanavalin oedema = assay: concanavalin oedema; type: in vivo; settings: im; intramuscularly
# Source text: as §1
# trypsin oedema = assay: trypsin oedema; type: in vivo; settings: im; intramuscularly
# Source text: as §1
# rats = settings: intramuscular
# in vivo = settings: rat
# [3] = comparison of the therapeutic range; settings: rat, in vivo
# kaolin oedema = assay: comparison of the therapeutic range
# [4] = system: paw oedemas, caused by the administration of kaolin; assay: kaolin paw oedema, antiphlogistic action in rats; type: in vivo; settings: Rattus norvegicus, read-out: Kaolin oedema ED50
# [5] = Rattus norvegicus, im, rats, kaolin oedema, intramuscularly, n = 10/dose group, read-out: Inhibition in % of the controls
# [6] = Rattus norvegicus, im, rats, intramuscularly, n = 10/dose group, read-out: ED50 (kaolin oedema)
# [7] = po, Therapeutic range LD50 / ED50 kaolin oedema, rats
structure (smiles),measurement,setting,value
"CC(C)CSC(=O)CCS(=O)(=O)CC(C)C [(CH3)2 CHCH2 SO2 CH2 CH2 COSCH2 CH(CH3)2, S-Isobutyl 3-isobutylsulphonylpropionothioate]",inhibition in vivo at 12.5 mg/kg,[1]; [5],42%
"CC(C)SCCC(=O)SC(C)C [(CH3)2 CHSCH2 CH2 COSCH(CH3)2, S-Isopropyl 3-isopropylthiopropionothioate]",inhibition in vivo at 25 mg/kg,[1]; [5],63.2%
"CC(C)SC(=O)CC[S+]([O-])C(C)C (centres unmarked) [(CH3)2 CHSOCH2 CH2 COSCH(CH3)2, S-Isopropyl 3-isopropylsulphinylpropionothioate]",inhibition in vivo at 12.5 mg/kg,[1]; [5],22.7%
"CC(C)(C)SCCC(=O)SC(C)(C)C [(CH3)3 CSCH2 CH2 COSC(CH3)3, S-tert.-butyl 3-tert.-butylthiopropionothioate]",inhibition in vivo at 12.5 mg/kg,[1]; [5],23.3%
"CSCCC(=O)SC [A, S-methyl 3-methylthiopropionothioate]",ED50,"[1]; Rattus norvegicus, im, rats, intramuscular, read-out: Kaolin oedema ED50",4.85 µmol/kg
same,"antiphlogistic (anti-inflammatory) action, in words","[1]; rat, in vivo",very pronounced antiphlogistic action
same,TD50,[2]; im,256 µmol/kg
same,ED50,formalin oedema,5.4 mg/kg
same,ED50,albumin oedema,6.3 mg/kg
same,ED50,yeast oedema,27.4 mg/kg
same,ED50,concanavalin oedema,3.4 mg/kg
same,ED50,trypsin oedema,2 mg/kg
same,LD50,rats,"4,587 μmols/kg"
same,LD50,in vivo; im,4590 µmol/kg
same,selectivity ratio,[3],52.9
same,selectivity ratio,"[3]; Therapeutic range LD50 / ED50 kaolin oedema, rats, intramuscular",946
same,"therapeutic range, in words","kaolin oedema; rat, in vivo",wide therapeutic range; also recorded: unexpected favourable therapeutic range
"CCSCCC(=O)SCC [C2 H5 SCH2 CH2 COSC2 H5, S-Ethyl 3-ethylthiopropionothioate]",ED50,[1]; [6],3.75 mg/kg
same,inhibition in vivo at 2.5 mg/kg,"[1]; Rattus norvegicus, im, rats, kaolin oedema, intramuscularly, dose 2.50 mg/kg, n = 10/dose group, read-out: Inhibition in % of the controls",58.2%
"CCCSCCC(=O)SCCC [C3 H7 SCH2 CH2 COSC3 H7, S-Propyl 3-propylthiopropionothioate]",inhibition in vivo at 25 mg/kg,[1]; [5],68.5%
"CCCSC(=O)CC[S+]([O-])CCC (centres unmarked) [C3 H7 SOCH2 CH2 COSC3 H7, S-Propyl 3-propylsulphinylpropionothioate]",inhibition in vivo at 100 mg/kg,[1]; [5],73%
"CCCCSCCC(=O)SCCCC [C4 H9 SCH2 CH2 COSC4 H9, S-Butyl 3-butylthiopropionothioate]",inhibition in vivo at 50 mg/kg,[1]; [5],77.2%
"CCCCSC(=O)CC[S+]([O-])CCCC (centres unmarked) [C4 H9 SOCH2 CH2 COSC4 H9, S-Butyl 3-butylsulphinylpropionothioate]",inhibition in vivo at 100 mg/kg,[1]; [5],73%
"C=C(C)C(=O)SC [CH2 =C(CH3)COSCH3, S-methyl methacrylthioate]",inhibition in vivo at 5 mg/kg,"[1]; Rattus norvegicus, im, rats, kaolin oedema, intramuscularly, dose 5.00 mg/kg, n = 10/dose group, read-out: Inhibition in % of the controls",21.8%
"C=CC(=O)SCC [CH2 =CHCOSC2 H5, S-ethyl acrylthioate]",ED50,[1]; [6],1.5 mg/kg
same,inhibition in vivo at 0.32 mg/kg,"[1]; Rattus norvegicus, im, rats, kaolin oedema, intramuscularly, dose 0.32 mg/kg, n = 10/dose group, read-out: Inhibition in % of the controls",18.5%
"CC=CC(=O)SC [CH3 CH=CHCOSCH3, S-methyl crotonylthioate]",inhibition in vivo at 12.5 mg/kg,[1]; [5],16%
"CCOC(=O)CCSC [CH3 SCH2 CH2 COOC2 H5, Ethyl 3-methylthiopropionate]",inhibition in vivo at 25 mg/kg,[1]; [5],16%
"CSCC(C)C(=O)SC (centres unmarked) [CH3 SCH2 CH(CH3)COSCH3, S-methyl 3-methylthio-2-propylcarbonylthioate]",ED50,[1]; [6],4.5 mg/kg
same,inhibition in vivo at 0.65 mg/kg,"[1]; Rattus norvegicus, im, rats, kaolin oedema, intramuscularly, dose 0.65 mg/kg, n = 10/dose group, read-out: Inhibition in % of the controls",16.6%
"CSC(=O)CC[S+](C)[O-] (centres unmarked) [CH3 SOCH2 CH2 COSCH3, S-Methyl 3-methylsulphinylpropionothioate]",ED50,[1]; [6],1.8 mg/kg
same,inhibition in vivo at 3.12 mg/kg,"[1]; Rattus norvegicus, im, rats, kaolin oedema, intramuscularly, dose 3.12 mg/kg, n = 10/dose group, read-out: Inhibition in % of the controls",10.2%
O=C(O)c1ccccc1Nc1cccc(C(F)(F)F)c1 [Flufenamic acid],TD50,[2]; po,55.1 µmol/kg
same,ED50,"[4]; rats, oral",36.2 µmol/kg
same,LD50,in vivo; po,2040 µmol/kg
same,selectivity ratio,[3]; [7],56.3
same,Therapeutic range ED50 ulcer / ED50 kaolin oedema,"kaolin oedema; rats, oral",1.52
"O=C(O)CCS [HSCH2 CH2 COOH, 3-mercaptopropionic acid]",inhibition in vivo at 20 mg/kg,"[1]; Rattus norvegicus, im, rats, kaolin oedema, intramuscularly, dose 20.00 mg/kg, n = 10/dose group, read-out: Inhibition in % of the controls",8.5%
COc1ccc2c(c1)c(CC(=O)O)c(C)n2C(=O)c1ccc(Cl)cc1 [Indometacin],TD50,"[2]; rats, oral, read-out: Stomach ulcer ED50",11.1 µmol/kg
same,ED50,[4]; po,2.9 µmol/kg
same,LD50,in vivo; po,68 µmol/kg
same,selectivity ratio,"[3]; po, Therapeutic range ED50 ulcer / ED50 kaolin oedema, rats",3.81
same,selectivity ratio,[3]; [7],23.4
CCCCC1C(=O)N(c2ccccc2)N(c2ccccc2)C1=O [Phenylbutazone],TD50,[2]; po,182 µmol/kg
same,ED50,"[4]; rats, oral",122 µmol/kg
CC(C)CSCCC(=O)SCC(C)C [S-Isobutyl 3-isobutylthiopropionothioate],inhibition in vivo at 50 mg/kg,[1]; [5],77.2%
CC(C)CSC(=O)CC[S+]([O-])CC(C)C (centres unmarked) [S-isobutyl 3-isobutylsulphinylpropionothioate],inhibition in vivo at 12.5 mg/kg,[1]; [5],17.9%
CCC(C)SC(=O)CC[S+]([O-])C(C)CC (centres unmarked) [S-sec.-Butyl 3-sec.-butylsulphinylpropionothioate],inhibition in vivo at 100 mg/kg,[1]; [5],90.5%
CCC(C)SC(=O)CCS(=O)(=O)C(C)CC (centres unmarked) [S-sec.-Butyl 3-sec.-butylsulphonylpropionothioate],inhibition in vivo at 12.5 mg/kg,[1]; [5],33%
CCC(C)SCCC(=O)SC(C)CC (centres unmarked) [S-sec.-Butyl 3-sec.-butylthiopropionothioate],inhibition in vivo at 50 mg/kg,[1]; [5],72%
